# Measured values: patent publication US11542273B2, “Amide compound having bet proteolysis-inducing action and medicinal application thereof” (MITSUBISHI TANABE PHARMA CORPORATION, priority 2018, dated 2023)
# Assays:
# [1] = test system: human prostate cancer LNCaP cells; assay: Cytotoxic action on cancer cells (WST-8, 96 hr); assay type: cell-based; conditions: Homo sapiens, LNCaP, 96 h, read-out: LNCaP cytotoxic activity: IC50
# Procedure: The cytotoxic action of the compound of the present invention against human cancer cells was evaluated in vitro. In this experiment, (+)-JQ1 (Nature volume 468, pages 1067-1073 (23 Dec. 2010)) known to have an inhibitory activity on the binding of BRD4 protein and a ligand therefor was used as a positive control drug. Respective cells were suspended in 10% FBS/RPMI1640, seeded in a 96 well plate and cultured at 5% CO2, 37° C. overnight. A test compound dissolved in DMSO was diluted with 10% FBS/RPMI1640 and added and the cells were further cultured for 96 hr. After culturing, the viable cell number was measured using a cell number measurement WST-8 kit (Kishida Chemical Co., Ltd.). As a control, the measurement was performed under conditions free of the test compound. The cytotoxic activity of the compound of the present invention against human prostate cancer LNCaP cells is shown in IC50 value in Table 1. […] It was calculated from the straight line connecting the cell survival rate at two points enclosing the 50% cell survival rate and the compound concentration. In addition, the cytotoxic activity against respective cancer cells of human acute myeloid leukemia MV-4-11 cell, human chronic myeloid leukemia K562 cell, human multiple myeloma MM.1S cell, human diffuse large B-cell lymphoma SU-DHL-6 cell, human T-cell leukemia Jurkat cells, human Burkitt lymphoma Raji cell, human castration-resistant prostate cancer PC-3 cell, human ovarian cancer A2780 cell, human bladder cancer 5637 cell, human breast cancer ZR-75-1 cell, human triple negative breast cancer MDA-MB-231 cell, human uterine sarcoma MES-SA cell, human gastric cancer SNU-16 cell, human non-small cell lung cancer NCI-H1975 cell, human small cell lung cancer NCI-H82 cell, human large cell lung cancer NCI-H460 cell, human colorectal cancer HCT116 cell, human glioma U-87 MG cell, human pancreatic cancer AsPC-1 cell, and human liver cancer Hep G2 cell is shown in IC50 value in Table 2.
# [2] = molecular target: BRD4 protein (Homo sapiens (Human), UniProt O60885); assay: BRD4 protein degradation inducing action in cancer cells (immunofluorescence, Operetta); assay type: cell-based; conditions: LNCaP cells, 6 hr treatment, fluorescence intensity
# Procedure: The degradation inducing action of the compound of the present invention on BRD4 protein in cancer cells was evaluated in vitro using human prostate cancer LNCaP cells. LNCaP cells were suspended in 10% FBS/RPMI1640, seeded in a 96 well Cell carrier plate (Perkin Elmer) and cultured at 5% CO2, 37° C. overnight. A test compound dissolved in DMSO was diluted with 10% FBS/RPMI1640 and added and the cells were further cultured for 6 hr. After culturing, the cells were immobilized with 4% para-formaldehyde/PBS and further subjected to a permeation treatment with 0.25% Triton X-100/PBS. Thereafter, the cells were blocked with 10% BSA/PBS, a solution containing Anti-Brd4 antibody (Abcam) or Anti-BRD4 (Sigma-Aldrich) as the primary antibody was added and the cells were incubated at 4° C. overnight. Thereafter, as the secondary antibody, a solution containing secondary antibody A shown below was added to Example compounds 1-190, 223 and 224, and a solution containing secondary antibody B shown below was added to Example compounds 191-222, and 0.5 μg/mL Hoechst 33342 (Sigma-Aldrich) and 14 μM Acti-Stain 555 Fluorescent Phalloidin (Cytoskeleton) were further added. After incubation for 1 hr, BRD4 protein amount was measured by Operetta (Perkin Elmer) as fluorescence intensity.
# • Anti-Rabbit IgG(H+L), F(ab′)2 Fragment (Alexa Fluor 488 Conjugate) (Cell Signaling Technology), fluorescence intensity was measured at excitation: 495 nm, emission: 519 nm. Secondary Antibody B • Goat anti-Rabbit IgG(H+L) Cross-Adserbed Secondary Antibody (Alexa Fluor 546) (Thermo Fisher Scientific) fluorescence intensity was measured at excitation: 560 nm, emission: 572 nm.
# The BRD4 protein degradation inducing activity of the compound of the present invention in LNCaP cells is shown in DC50 value in Table 3. The DC50 value is a concentration of the compound showing 50% fluorescence intensity when the fluorescence intensity thereof under compound untreated condition is 100%. It was calculated from the straight line connecting the fluorescence intensity at two points enclosing the 50% fluorescence intensity and the compound concentration.
Compound,DC50 [2],IC50 [1]
"COC(=O)C[C@@H]1N=C(c2ccc(NC(=O)CCc3ccc(OCCOCCOCCOCCOCCOCCOCCOCC(=O)N[C@H](C(=O)N4C[C@H](O)C[C@H]4C(=O)N[C@@H](C)c4ccc(-c5scnc5C)cc4)C(C)(C)C)cc3)cc2)c2c(sc(C)c2C)-n2c(C)nnc21 [Example 5, methyl [(6S)-4-(4-{3-[4-({(25S)-25-[(2S,4R)-4-hydroxy-2-({(18)-1-[4-(4-methyl-1,3-thiazol-5-yl)phenyl]ethyl}carbamoyl)pyrrolidine-1-carbonyl]-26,26-dimethyl-23-oxo-3,6,9,12,15,18,21-heptaoxa-24-azaheptacosan-1-yl}oxy)phenyl]propanamido}phenyl)-2,3,9-trimethyl-6H-thieno[3,2-f][1,2,4]triazolo[4,3-a][1,4]diazepin-6-yl]acetate]",0.52 nM,1.2 nM
"COC(=O)C[C@@H]1N=C(c2ccc(-c3ccc(OCC(=O)N[C@H](C(=O)N4C[C@H](O)C[C@H]4C(=O)N[C@@H](C)c4ccc(-c5scnc5C)cc4)C(C)(C)C)cc3)cc2)c2c(sc(C)c2C)-n2c(C)nnc21 [Example 15, methyl [(6S)-4-{4′-[2-({(2S)-1-[(2S,4R)-4-hydroxy-2-({(1S)-1-[4-(4-methyl-1,3-thiazol-5-yl)phenyl]ethyl}carbamoyl)pyrrolidin-1-yl]-3,3-dimethyl-1-oxobutan-2-yl}amino)-2-oxoethoxy][1,1′-biphenyl]-4-yl}-2,3,9-trimethyl-6H-thieno[3,2-f][1,2,4]triazolo[4,3-a][1,4]diazepin-6-yl]acetate]",0.066 nM,0.083 nM
"Cc1ncsc1-c1ccc([C@H](C)NC(=O)[C@@H]2C[C@@H](O)CN2C(=O)[C@@H](NC(=O)COc2ccc(-c3ccc(C4=N[C@@H](C)c5nnc(C)n5-c5sc(C)c(C)c54)cc3)cc2C#N)C(C)(C)C)cc1 [Example 16, (2S,4R)-1-{(2S)-2-[2-({3-cyano-4′-[(6S)-2,3,6,9-tetramethyl-6H-thieno[3,2-f][1,2,4]triazolo[4,3-a] [1,4]diazepin-4-yl][1,1′-biphenyl]-4-yl}oxy)acetamido]-3,3-dimethylbutanoyl}-4-hydroxy-N-{(1S)-1-[4-(4-methyl-1,3-thiazol-5-yl)phenyl]ethyl}pyrrolidine-2-carboxamide]",0.53 nM,0.29 nM
"COC(=O)C[C@@H]1N=C(c2ccc(-c3ccc(/C=C/C(=O)N[C@H](C(=O)N4C[C@H](O)C[C@H]4C(=O)N[C@@H](C)c4ccc(-c5scnc5C)cc4)C(C)(C)C)cc3)cc2)c2c(sc(C)c2C)-n2c(C)nnc21 [Example 27, methyl [(6S)-4-{4′-[(1E)-3-({(2S)-1-[(2S,4R)-4-hydroxy-2-({(1S)-1-[4-(4-methyl-1,3-thiazol-5-yl)phenyl]ethyl}carbamoyl)pyrrolidin-1-yl]-3,3-dimethyl-1-oxobutan-2-yl}amino)-3-oxopropen-1-yl][1,1′-biphenyl]-4-yl}-2,3,9-trimethyl-6H-thieno[3,2-f][1,2,4]triazolo[4,3-a] [1,4]diazepin-6-yl]acetate]",0.085 nM,0.064 nM

# The next lines start with results.
DC50 [2],Compound,IC50 [1]
0.023 nM,"COC(=O)C[C@@H]1N=C(c2ccc(-c3ccc(CCC(=O)N[C@H](C(=O)N4C[C@H](O)C[C@H]4C(=O)N[C@@H](C)c4ccc(-c5scnc5C)cc4)C(C)(C)C)cc3)cc2)c2c(sc(C)c2C)-n2c(C)nnc21 [Example 28, methyl [(6S)-4-{4′-[3-({(2S)-1-[(2S,4R)-4-hydroxy-2-({(1S)-1-[4-(4-methyl-1,3-thiazol-5-yl)phenyl]ethyl}carbamoyl)pyrrolidin-1-yl]-3,3-dimethyl-1-oxobutan-2-yl}amino)-3-oxopropyl][1,1′-biphenyl]-4-yl}-2,3,9-trimethyl-6H-thieno[3,2-f][1,2,4]triazolo[4,3-a][1,4]diazepin-6-yl]acetate]",0.044 nM
0.43 nM,"Cc1ncsc1-c1ccc([C@H](C)NC(=O)[C@@H]2C[C@@H](O)CN2C(=O)[C@@H](NC(=O)COc2ccc(-c3ccc(C4=NC(O)c5nnc(C)n5-c5sc(C)c(C)c54)cc3)cc2)C(C)(C)C)cc1 (stereo partly drawn) [Example 30, (2S,4R)-4-hydroxy-1-[(2S)-2-(2-{[4′-(6-hydroxy-2,3,9-trimethyl-6H-thieno[3,2-f][1,2,4]triazolo[4,3-a][1,4]diazepin-4-yl)[1,1′-biphenyl]-4-yl]oxy}acetamido)-3,3-dimethylbutanoyl]-N-{(1S)-1-[4-(4-methyl-1,3-thiazol-5-yl)phenyl]ethyl}pyrrolidine-2-carboxamide]",0.99 nM
0.38 nM,"Cc1ncsc1-c1ccc([C@H](C)NC(=O)[C@@H]2C[C@@H](O)CN2C(=O)[C@@H](NC(=O)COc2ccc(-c3ccc(C4=N[C@@H](C)c5nnc(C)n5-c5sc(C)c(C)c54)cc3)cc2)C(C)(C)C)cc1 [Example 33, (2S,4R)-1-{(2S)-3,3-dimethyl-2-[2-({4′-[(6S)-2,3,6,9-tetramethyl-6H-thieno[3,2-f][1,2,4]triazolo[4,3-a] [1,4]diazepin-4-yl][1,1′-biphenyl]-4-yl}oxy)acetamido]butanoyl}-4-hydroxy-N-{(1S)-1-[4-(4-methyl-1,3-thiazol-5-yl)phenyl]ethyl}pyrrolidine-2-carboxamide]",0.26 nM
0.098 nM,"CC(=O)NC1N=C(c2ccc(-c3ccc(OCC(=O)N[C@H](C(=O)N4C[C@H](O)C[C@H]4C(=O)N[C@@H](C)c4ccc(-c5scnc5C)cc4)C(C)(C)C)cc3)cc2)c2c(sc(C)c2C)-n2c(C)nnc21 (stereo partly drawn) [Example 34, (2S,4R)-1-[(2S)-2-(2-{[4′-(6-acetamido-2,3,9-trimethyl-6H-thieno[3,2-f][1,2,4]triazolo[4,3-a][1,4]diazepin-4-yl) [1,1′-biphenyl]-4-yl]oxy}acetamido)-3,3-dimethylbutanoyl]-4-hydroxy-N-{(1S)-1-[4-(4-methyl-1,3-thiazol-5-yl)phenyl]ethyl}pyrrolidine-2-carboxamide]",0.72 nM
0.66 nM,"COC(=O)N(C)C1N=C(c2ccc(-c3ccc(OCC(=O)N[C@H](C(=O)N4C[C@H](O)C[C@H]4C(=O)N[C@@H](C)c4ccc(-c5scnc5C)cc4)C(C)(C)C)cc3)cc2)c2c(sc(C)c2C)-n2c(C)nnc21 (stereo partly drawn) [Example 35, methyl (4-{4′-[2-({(2S)-1-[(2S,4R)-4-hydroxy-2-({(1S)-1-[4-(4-methyl-1,3-thiazol-5-yl)phenyl]ethyl}carbamoyl)pyrrolidin-1-yl]-3,3-dimethyl-1-oxobutan-2-yl}amino)-2-oxoethoxy][1,1′-biphenyl]-4-yl}-2,3,9-trimethyl-6H-thieno[3,2-f][1,2,4]triazolo[4,3-a][1,4]diazepin-6-yl)methylcarbamate]",3.9 nM
0.013 nM,"COC(=O)C[C@@H]1N=C(c2ccc(-c3ccc(COCC(=O)N[C@H](C(=O)N4C[C@H](O)C[C@H]4C(=O)N[C@@H](C)c4ccc(-c5scnc5C)cc4)C(C)(C)C)cc3)cc2)c2c(sc(C)c2C)-n2c(C)nnc21 [Example 39, methyl [(6S)-4-(4′-{[2-({(2S)-1-[(2S,4R)-4-hydroxy-2-({(1S)-1-[4-(4-methyl-1,3-thiazol-5-yl)phenyl]ethyl}carbamoyl)pyrrolidin-1-yl]-3,3-dimethyl-1-oxobutan-2-yl}amino)-2-oxoethoxy]methyl}[1,1′-biphenyl]-4-yl)-2,3,9-trimethyl-6H-thieno[3,2-f][1,2,4]triazolo[4,3-a] [1,4]diazepin-6-yl]acetate]",0.071 nM
